Reference: US20240400572A1, “COMPOUNDS AND METHODS FOR TREATING CANCERS THAT ARE MGMT DEFICIENT REGARDLESS OF MMR STATUS” (Yale University, priority 2021, published 2024)
“Also recorded” adds a separate entry of the source.

Assays:
[1] = test system: FANCD2 ubiquitination in LN229 MGMT+/−, MMR+/− cells; experiment: Western blot analysis of FANCD2 ubiquitination; format: cell-based, human
Procedure: FIGS. ZS9A-ZS9G. […] (FIG. ZS9A) Representative images of micronuclei identification. (FIG. ZS9B) Validation of micronuclei identification using olaparib as positive control. Change in percent cells with 1 micronuclei from baseline (DMSO control) after treatment with olaparib ([…]) for 48 h in LN229 MGMT+/−, MMR+/− cells. Columns, mean; error bars, SD; […] technical replicates; **** p<0.0001. […] (FIG. ZS9G) Western blot analysis of FANCD2 ubiquitination in LN229 MGMT+/−, MMR+/− cells and PD20 FANCD2-deficient cells, complemented with empty vector (FANCD2+EV), wildtype FANCD2 (PD20+FD2) or ubiquitination-mutant FANCD2 (PD20+KR). The % FANCD2 ubiquitination (% FANCD2 Ub.) is quantified as the background-corrected integrated band intensity of the upper band divided by the sum of the background-corrected integrated band intensities of the upper and lower bands. The fold change in % FANCD2 ubiquitination is presented for each cell line relative to DMSO-treated cells. Vinculin serves as loading control. For (FIG. ZS9D), (FIG. ZS9E), and (FIG. ZS9F), points, mean; error bars, SD; n=3 technical replicates.
Western Blotting. […] Where shown, bands were quantified using ImageJ software.

[2] = test system: LN229 MGMT+/−, MMR+/− cells; experiment: Clonogenic cell survival assay; conditions: cell status given in the value
Procedure: Cells were trypsinized, washed, counted, and diluted in a medium containing various concentrations of drug. They were then immediately seeded in six-well plates in triplicate at three-fold dilutions, ranging from 9000 to 37 cells per well. Depending on colony size, these plates were kept in the incubator for 10 to 14 days. After incubation, colonies were washed in phosphate-buffered saline (PBS), stained with crystal violet, counted, and quantified.

[3] = test system: LN229 MGMT−/MMR+ and LN229 MGMT−/MMR− (or MGMT−/MSH6−) flank tumors; experiment: Murine flank tumor models; format: in vivo; conditions: for median OS: Kaplan-Meier
Procedure: Mouse Protocols for Flank Studies. A mouse tumor model was established by subcutaneously implanting human LN229 (MGMT−/MMR+) or LN229 (MGMT−/MMR−) cells. Cells were cultured as a monolayer in DMEM+10% FBS (Thermo Fisher) at 37° C. in a humidified atmosphere with 5% CO2 and passaged between one and three days prior to implantation and media was replaced every 2-3 days as needed to maintain cell viability. Cells were not allowed to exceed 80% confluency. On the day of implantation, cells were trypsinized, washed with complete media and pelleted by centrifugation at 1200 rpm for 5 minutes. The supernatant was decanted, and cells were washed three times with sterile PBS and pelleted by centrifugation. During the final centrifugation, viability was determined using trypan blue exclusion. Cells were resuspended in sterile PBS and diluted 1:1 in Matrigel (Corning, Cat #47743-716) for a final concentration of 5×10^6 cells/100 μL. 5 million cells were injected into the flank of female nude mice (Envigo, Hsd:Athymic Nude-Foxn1^nu, 3-4 weeks age, 15 g). Once tumors reached a minimum volume of 100 mm^3, mice were randomized and administered either KL-50 (4a; 5 mg/kg MWF×3 weeks), TMZ (1a; 5 mg/kg MWF×3 weeks), or vehicle (10% cyclodextrin) by oral gavage. Caliper measurements were obtained during the dosing period and at least two weeks following treatment. Mice were euthanized if body weight loss exceeded 20% or if tumor volume increased to greater than 2000 mm^3. Kaplan-Meier analysis was used to evaluate survival rate based on death or removal from study.
In a second study, mice were randomized and administered either KL-50 (4a) or vehicle (10% cyclodextrin) by oral gavage or intraperitoneal injection on either M-F×1 or MWF×3 cycles at 5, 15, or 25 mgs/kg. Caliper measurements were obtained during the dosing period and at least two weeks following treatment. Mice were euthanized if body weight loss exceeded 20% or if tumor volume increased to greater than 2000 mm^3.
The third study involved MGMT−/MMR+ and MGMT−/MSH6− (shMSH6) LN229 cells. Mice tumors were allowed to grow to a larger average starting volume of ˜350 mm^3 before they were randomized and administered either KL-50 (4a; 25 mg/kg MWF×3 weeks) or vehicle (10% cyclodextrin) by oral gavage. Caliper measurements were obtained during the dosing period and at least two weeks following treatment. Mice were euthanized if body weight loss exceeded 20% or if tumor volume increased to greater than 3000 mm^3.

[4] = test system: LN229 MGMT−/MMR− intracranial tumors; experiment: Intracranial tumor study; format: in vivo, mouse; conditions: 25 mg/kg IP M-F×1 week as printed
[5] = LN229 MGMT−/MMR− flank tumor-bearing mice, 5 mg/kg P.O. MWF×3 weeks

| Structure (SMILES) | FANCD2 ubiquitination (in words) [1] | clonogenic survival (in words) [2] | tumor growth, MGMT−/MMR+ flank tumors (in words) ([3]; 5 mg/kg P.O. MWF×3 weeks) | tumor growth, MGMT−/MMR− flank tumors (in words) ([3]; 5 mg/kg P.O. MWF×3 weeks) | increase in median OS vs TMZ [3, 5] | median OS [3, 5] | body weight (in words) ([3]; LN229 flank tumor experiments, 5 mg/kg P.O. MWF×3 weeks) | efficacy and toxicity over regimens (in words) ([3]; MGMT−/MMR+ and MGMT−/MMR− flank tumors, 5, 15, 25 mg/kg, MWF×3 weeks or M-F×1 week, PO or IP) | growth of large tumors (in words) ([3]; ~350-400 mm^3 MGMT−/MMR+ and MGMT−/MSH6− tumors, 25 mg/kg PO MWF×3 weeks) | intracranial tumor growth by BLI (in words) [4] |
| --- | --- | --- | --- | --- | --- | --- | --- | --- | --- | --- |
| NC(=O)c1ncn2c(=O)n(CCF)nnc12 [KL-50, 3-(2-fluoroethyl)-4-oxo-3H,4H-imidazo[4,3-d][1,2,3,5]tetrazine-8-carboxamide] | specifically in MGMT− cells | robust antitumor activity in MGMT− cells, independent of MMR status; also recorded: minimal toxicity to MGMT+ cells at doses up to at least 200 μM | statistically non-inferior to TMZ (1a) | potently suppressed tumor growth | greater than 5 week | greater than 15 weeks | no significant changes in body weight | effective and non-toxic; also recorded: equal efficacy with no observable increases in toxicity | potently suppressed the growth | effective |
| Cn1nnc2c(C(N)=O)ncn2c1=O [TMZ, temozolomide, reference compound] | induced FANCD2 ubiquitination but only in MGMT−/MMR+ cells | negligible activity in MGMT+LN229 cells, irrespective of MMR status; also recorded: robust tumor cell killing in MGMT−, MMR+ cells that was abolished in isogenic cells lacking MMR | suppressed tumor growth | no efficacy | – | 10 weeks | – | – | – | only transiently suppressed tumor growth |
